# Results from publication PMC11311998, “AR71, Histamine H3 Receptor Ligand—In Vitro and In Vivo Evaluation (Anti-Inflammatory Activity, Metabolic Stability, Toxicity, and Analgesic Action)” (International Journal of Molecular Sciences, 2024).
# Tests used:
# SH-SY5Y cells = assay: DNA content / cell cycle (2N/4N DNA ratio), image cytometry; assay type: cell-based, human
# Procedure: To evaluate the growth dynamics of SH-SY5Y cells in the presence of AR71, neuroblastoma cells were treated with increasing concentrations (0.39–25 µM) of the compound tested for 24 or 72 h. Using image cytometry, we calculated the DNA content index as a 2N/4N DNA ratio to analyse the cell cycle distribution after 24 and 72 h of incubation with AR71.
# SH-SY5Y cells were initially seeded in 96-well plates at a density of 5000 cells per well in 120 μL of medium. After 24 h, the cells were exposed to different concentrations of AR71 for either 24 or 72 h. Following a wash with PBS, the cells were fixed with 4% formaldehyde for 20 min and then stained with 1 µg/mL of Hoechst 33342 for 30 min at room temperature. Subsequently, images of 16 fields per well were captured using the ArrayScan VTI HCS Reader from Thermo Fisher Scientific, Inc. (Thermo Fisher Scientific, Waltham, MA, USA), which was equipped with a 5× objective. The cell number was calculated as the sum of the Hoechst-33342-stained cell nuclei using Cell Cycle Bioapplication V3 software and expressed as a per cent of control. The remaining adherent cells in culture wells reflected the cytotoxic potential of the tested compound. In the next step, a series of detailed images were acquired using the ArrayScan VTI HCS Reader equipped with a 10× objective to collect at least 500 nuclei/cells per replicate. The DNA cell content of single cells was analysed based on Hoechst-33342 fluorescence intensity of their nuclei using Cell Cycle Bioapplication V3 software and presented as the DNA 2N/4N ratio. All experiments were performed three times, each in four replicates. IC50 values were calculated with a non-linear fit to a sigmoidal dose–response curve (log compound vs. normalised response) using GraphPad Prism 6.07. The results are presented as mean ± SEM from at least three independent experiments. Statistical significance was evaluated using one-way ANOVA followed by Dunnett’s test. * p < 0.05, ** p < 0.01, and *** p < 0.001 indicate significant differences compared with the control counterparts.
# CCI-exposed mice [1] = assay: cold plate test in CCI neuropathic pain model; assay type: in vivo, mouse
# Procedure: (§1) The effects of a single intraperitoneal (i.p.) injection of AR71 at doses of 5, 10, and 20 mg/kg on mechanical (von Frey test) and thermal (cold plate and tail flick tests) stimulus were evaluated on day 14 following sciatic nerve injury (Figure 15). There were seven to eight animals per group. All these tests were performed in three time series after the administration of the compound. In the case of the von Frey test—after 30, 90, and 180 min; the cold plate test—after 35, 95, and 185 min; and the tail flick test—after 40, 100, and 190 min.
# The mice were randomly divided into four experimental groups. […] All data from behavioural tests were analysed using a one-way ANOVA with Bonferroni’s multiple comparison post hoc test. […]
# The cold plate test (performed by the Cold/Hot Plate Analgesia Meter, Columbus Instruments, N. Hague Ave, Columbus, OH, USA) was used to assess sensitivity to noxious thermal stimuli. […] The mice were placed on a cold plate, and the time it took to lift the injured paw was recorded.
# CCI-exposed mice [2] = assay: CCI neuropathic pain model, all behavioural tests and observation; assay type: in vivo, mouse
# Procedure: as §1
# The mice were randomly divided into four experimental groups. One group received a vehicle treatment (10% DMSO/10%(2-Hydroxypropyl)-β-cyclodextrin/water for injection, i.p.), while the other three groups were administered with AR71 at doses of 5, 10, or 20 mg/kg of body weight (b.w.), i.p. Baseline measurements for all tests were conducted before the compounds were injected, and the results are presented as percentages of the maximal possible effect (% MPE). […] All data from behavioural tests were analysed using a one-way ANOVA with Bonferroni’s multiple comparison post hoc test.
# Assessment of the analgesic activity of AR71 was performed using a mouse experimental model of chronic constriction injury of the sciatic nerve, by three tests including the von Frey test, the cold plate test, and the tail flick test. […]
# human H3R = target: human H3R; set-up: method as in PMID 36370200; details: cited from earlier work
smiles,measurement,setting,value
"COc1cc(/C=C/C(=O)c2ccc(OCCCN3CCCCC3)cc2)cc(OC)c1OC [AR71, (E)-3-(3,4,5-trimethoxyphenyl)-1-(4-(3-(piperidin-1-yl)propoxy)phenyl)prop-2-en-1-one]",effect on cell cycle,"SH-SY5Y cells; 3.125–25 µM, 24 and 72 h",cell cycle arrest at the G2/M phase (4N)
same,IC50 for 2N/4N DNA ratio,SH-SY5Y cells; 24 h incubation,18800 nM
same,IC50 for 2N/4N DNA ratio,SH-SY5Y cells; 72 h incubation,4540 nM
same,effect in cold plate test vs control,"CCI-exposed mice [1]; 5, 10 and 20 mg/kg i.p., 35 min (5 mg/kg p < 0.05; 10 and 20 mg/kg p < 0.001)",Analgesic effects
same,effect in cold plate test vs control,"CCI-exposed mice [1]; 95 and 185 min after injection, 10 and 20 mg/kg i.p.",only the two higher doses were effective
same,"sedative, locomotor or gastrointestinal effects","CCI-exposed mice [2]; 5, 10, 20 mg/kg i.p.","no sedative, locomotor, or gastrointestinal effects"
same,dose with the highest analgesic effects,"CCI-exposed mice [2]; single i.p. injection, doses 5, 10, 20 mg/kg, day 14 after CCI",20 mg/kg
same,Ki,human H3R,24 nM
